According to US20100184815A1 (priority 2008, published 2010):

Columns and labels:
Full Length hPPARγ = biological target: T1, Full Length hPPARγ (Homo sapiens, UniProt P37231); assay: Full length hPPARγ transfection assay; format: cell-based; conditions: full length receptor; scale 1-5; read-out: Full Length hPPAR γ EC50 (scaled number)
T1 construct: Full Length; expressed in transfected cells; host or cells: Cos cells
T1 sequence (P37231 1-505): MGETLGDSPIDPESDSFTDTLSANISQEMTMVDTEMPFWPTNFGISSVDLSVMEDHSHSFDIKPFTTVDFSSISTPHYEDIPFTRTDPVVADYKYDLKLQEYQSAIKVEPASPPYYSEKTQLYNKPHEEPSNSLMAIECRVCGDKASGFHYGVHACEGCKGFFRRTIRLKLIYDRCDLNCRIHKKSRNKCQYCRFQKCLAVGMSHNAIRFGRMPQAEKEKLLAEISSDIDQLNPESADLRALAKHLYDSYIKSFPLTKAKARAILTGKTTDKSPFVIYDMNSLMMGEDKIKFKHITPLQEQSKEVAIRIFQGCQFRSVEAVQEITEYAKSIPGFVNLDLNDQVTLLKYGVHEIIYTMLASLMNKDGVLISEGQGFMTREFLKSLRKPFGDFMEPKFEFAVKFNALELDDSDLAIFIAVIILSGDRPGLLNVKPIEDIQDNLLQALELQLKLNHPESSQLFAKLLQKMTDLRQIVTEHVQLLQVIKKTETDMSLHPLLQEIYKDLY
Protocol: (§1) Transient transfection assays. Cos cells were seeded in 60-mm dishes at a density of 5.5×10^5 cells/dish in Dulbecco's modified Eagle's medium (DMEM) supplemented with 10% fetal calf serum (FCS) and incubated at 37° C. for 24 hours before transfection. Cells were transfected in Opti-MEM (Gibco; Invitrogen, Carlsbad, Calif.) without FCS for 3 hours at 37° C., using polyethylenimine, with reporter and expression plasmids. The plasmid pBluescript (Stratagene, La Jolla, Calif.) was used as carrier DNA to set the final amount of DNA to 5.5 μg/dish. The pCMV-b-galactosidase expression plasmid was cotransfected as a control for transfection efficiency. Transfection was stopped by the addition of DMEM supplemented with 10% FCS, and cells were then incubated at 37° C. After 16 hours, cells were trypsinized and seeded in 96-well plates at the density of 2×10^4 cells/well and incubated for 6 hours in 10% FCS-containing DMEM. Cells were then incubated for 24 hours in DMEM containing 0.2% FCS and increasing concentrations of the compound tested or vehicle (DMSO). At the end of the experiment, cells were washed once with ice-cold PBS, lysed and the luciferase and b-galactosidase assays were performed in a luminometer and spectrophotomer. Transfection efficiencies were normalized with the b-galactosidase activity assay. Half-maximal effective concentration (EC50) was estimated using Prism software (GraphPad). All transfection experiments were performed at least three times.
(§2) In the following tables, proprietary compound EC50 values for hPPAR α, β, δ and γ are shown. The EC50 value is the concentration of a drug that induces a response halfway between the baseline and maximum, and is commonly used as a measure of drug potency. EC50 values are reported on a scale of 1 through 5, wherein the value scale is defined for each receptor as follows: […]

Full Length hPPARβ/δ = biological target: T2, Full Length hPPARβ/δ (Homo sapiens, UniProt Q03181); assay: Full length hPPARβ/δ transfection assay; format: cell-based; conditions: full length receptor; scale 1-5; read-out: Full Length hPPAR β/δ EC50 (scaled number)
T2 construct: Full Length; expressed in transfected cells; host or cells: Cos cells
T2 sequence (Q03181 1-441): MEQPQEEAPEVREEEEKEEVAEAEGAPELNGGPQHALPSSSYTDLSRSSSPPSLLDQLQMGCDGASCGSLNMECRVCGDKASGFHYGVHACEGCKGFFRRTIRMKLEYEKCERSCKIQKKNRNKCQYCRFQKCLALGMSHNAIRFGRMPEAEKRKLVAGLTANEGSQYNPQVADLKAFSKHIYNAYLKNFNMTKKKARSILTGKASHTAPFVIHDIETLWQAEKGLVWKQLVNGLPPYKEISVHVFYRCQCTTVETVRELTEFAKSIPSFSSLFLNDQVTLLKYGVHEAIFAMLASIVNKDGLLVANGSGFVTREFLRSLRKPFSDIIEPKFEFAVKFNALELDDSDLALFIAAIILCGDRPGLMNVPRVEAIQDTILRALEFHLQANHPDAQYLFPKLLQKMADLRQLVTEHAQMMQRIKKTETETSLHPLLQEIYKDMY
Protocol: as §1, §2

SMILES	EC50 (Full Length hPPARγ)	EC50 (Full Length hPPARβ/δ)
CCCCCCn1c(COC(=O)c2ccc(SC(C)(C)C(=O)O)cc2)nn(Cc2ccc(C(C)(C)C)cc2)c1=O [Compound 187, 2-(4-(((1-(4-tert-butylbenzyl)-4-hexyl-5-oxo-4,5-dihydro-1H-1,2,4-triazol-3-yl)methoxy)carbonyl)phenylthio)-2-methylpropanoic acid]	51 to 200 nM	
CCCCCCCn1c(COC(=O)c2ccc(SC(C)(C)C(=O)O)cc2)nn(Cc2ccc(C(C)(C)C)cc2)c1=O [Compound 189, 2-(4-(((1-(4-tert-butylbenzyl)-4-heptyl-5-oxo-4,5-dihydro-1H-1,2,4-triazol-3-yl)methoxy)carbonyl)phenylthio)-2-methylpropanoic acid]	51 to 200 nM	
CCCCCCCn1c(COC(=O)c2ccc(SC(C)(C)C(=O)O)cc2)nn(Cc2ccc(C)cc2)c1=O [Compound 191, 2-(4-(((4-heptyl-1-(4-methylbenzyl)-5-oxo-4,5-dihydro-1H-1,2,4-triazol-3-yl)methoxy)carbonyl)phenylthio)-2-methylpropanoic acid]	51 to 200 nM	51 to 200 nM

Continued, values first:

EC50 (Full Length hPPARγ)	EC50 (Full Length hPPARβ/δ)	SMILES
201 to 999 nM	201 to 999 nM	CCCCCCn1c(COC(=O)c2ccc(SC(C)(C)C(=O)O)cc2)nn(Cc2ccc(C)cc2)c1=O [Compound 160, 2-(4-(((4-hexyl-1-(4-methylbenzyl)-5-oxo-4,5-dihydro-1H-1,2,4-triazol-3-yl)methoxy)carbonyl)phenylthio)-2-methylpropanoic acid]
201 to 999 nM	201 to 999 nM	CCCCCCCCn1c(COC(=O)c2ccc(SC(C)(C)C(=O)O)cc2)nn(Cc2ccc(C)cc2)c1=O [Compound 161, 2-methyl-2-(4-(((1-(4-methylbenzyl)-4-octyl-5-oxo-4,5-dihydro-1H-1,2,4-triazol-3-yl)methoxy)carbonyl)phenylthio)propanoic acid]
51 to 200 nM		CCCCCCCCn1c(COC(=O)c2ccc(OC(C)(C)C(=O)O)c(OC)c2)nn(Cc2ccc(C)cc2)c1=O [Compound 186, 2-(2-methoxy-4-(((1-(4-methylbenzyl)-4-octyl-5-oxo-4,5-dihydro-1H-1,2,4-triazol-3-yl)methoxy)carbonyl)phenoxy)-2-methylpropanoic acid]
